From PubChem BioAssay AID248 (DTP/NCI, 2004)
Several values for one entry are separate records, joined by “and”; a condition that tells them apart may be missing. Identical values can stand only once. Inconclusive results and toxic doses are left out. No stated cut-off is given here; in the data, active means T/C of 150% or more; inactive means T/C below 125%.

Tested on: L1210 leukemia ip in BDF1 mice, survival T/C
Experiment: NCI In Vivo Anticancer Drug Screen. Data for tumor model L1210 Leukemia (intraperitoneal) in B6D2F1 (BDF1) mice
Conditions: endpoint: mean survival time, higher = longer survival
Procedure, shortened: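 Ratio derived from survival: compound-dosed mice over vehicle-dosed mice, all bearing a transplantable tumor.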

[1] = dose: 25.0 mg/kg/injection, schedule: Q01DX009 (ip), vehicle: saline
[2] = dose: 100.0 mg/kg/injection, schedule: Q01DX009 (ip), vehicle: Klucel (hydroxypropylcellulose) (HPC)
[3] = dose: 100.0 mg/kg/injection, schedule: Q04DX003 (ip), vehicle: Klucel (hydroxypropylcellulose) (HPC)
[4] = dose: 200.0 mg/kg/injection, schedule: Q01DX009 (ip), vehicle: Klucel (hydroxypropylcellulose) (HPC)
[5] = dose: 200.0 mg/kg/injection, schedule: Q04DX003 (ip), vehicle: Klucel (hydroxypropylcellulose) (HPC)
[6] = dose: 400.0 mg/kg/injection, schedule: Q04DX003 (ip), vehicle: Klucel (hydroxypropylcellulose) (HPC)
[7] = dose: 100.0 mg/kg/injection, schedule: Q04DX002 (ip), vehicle: saline
[8] = dose: 25.0 mg/kg/injection, schedule: Q01DX009 (ip), vehicle: saline with Tween-80
[9] = dose: 25.0 mg/kg/injection, schedule: Q04DX002 (ip), vehicle: saline with Tween-80
[10] = dose: 50.0 mg/kg/injection, schedule: Q01DX009 (ip), vehicle: saline with Tween-80
[11] = dose: 50.0 mg/kg/injection, schedule: Q04DX002 (ip), vehicle: saline with Tween-80
[12] = dose: 100.0 mg/kg/injection, schedule: Q04DX002 (ip), vehicle: saline with Tween-80
[13] = dose: 25.0 mg/kg/injection, schedule: Q04DX003 (ip), vehicle: saline
[14] = dose: 50.0 mg/kg/injection, schedule: Q04DX003 (ip), vehicle: saline
[15] = dose: 100.0 mg/kg/injection, schedule: Q01DX009 (ip), vehicle: saline
[16] = dose: 100.0 mg/kg/injection, schedule: Q04DX003 (ip), vehicle: saline
[17] = dose: 100.0 mg/kg/injection, schedule: Q01DX001 (ip), vehicle: saline with Tween-80
[18] = dose: 200.0 mg/kg/injection, schedule: Q01DX001 (ip), vehicle: saline with Tween-80
[19] = dose: 400.0 mg/kg/injection, schedule: Q01DX001 (ip), vehicle: saline with Tween-80

Measured: T/C

CN1C2CCC1CC(OC(c1ccccc1)c1ccccc1)C2 (stereo not drawn)
inactive: dose: 3.12 mg/kg/injection, schedule: Q01DX009 (ip), vehicle: saline 95 % of control | dose: 5.0 mg/kg/injection, schedule: Q01DX009 (ip), vehicle: saline 92 % of control | dose: 6.25 mg/kg/injection, schedule: Q01DX009 (ip), vehicle: saline 97 % of control | dose: 10.0 mg/kg/injection, schedule: Q01DX009 (ip), vehicle: saline 103 % of control | dose: 12.5 mg/kg/injection, schedule: Q01DX009 (ip), vehicle: saline 103 % of control | dose: 17.0 mg/kg/injection, schedule: Q01DX009 (ip), vehicle: saline 95 % of control | dose: 20.0 mg/kg/injection, schedule: Q01DX009 (ip), vehicle: saline 90 % of control | [1] 109 % of control | dose: 55.0 mg/kg/injection, schedule: Q01DX001 (ip), vehicle: saline 98 % of control

Clc1cc(Cl)c2c(c1)Cc1cc(Cl)cc(N=Cc3ccc4c(c3)OCO4)c1-2
inactive: [2] 97 % of control | [3] 97 % of control | [4] 99 % of control | [5] 97 % of control | [6] 104 % of control

OCc1ccccc1CN1CCCC1
inactive: dose: 100.0 mg/kg/injection, schedule: Q01DX001 (ip), vehicle: Klucel (hydroxypropylcellulose) (HPC) 94 % of control | dose: 200.0 mg/kg/injection, schedule: Q01DX001 (ip), vehicle: Klucel (hydroxypropylcellulose) (HPC) 96 % of control | dose: 400.0 mg/kg/injection, schedule: Q01DX001 (ip), vehicle: Klucel (hydroxypropylcellulose) (HPC) 97 % of control

O=[N+]([O-])C1CCCCCCCCCCC1
inactive: dose: 100.0 mg/kg/injection, schedule: Q01DX001 (ip), vehicle: other 96 % of control | dose: 200.0 mg/kg/injection, schedule: Q01DX001 (ip), vehicle: other 100 % of control | dose: 400.0 mg/kg/injection, schedule: Q01DX001 (ip), vehicle: other 96 % of control

CCN(/C=C1\CCOC1=O)CC
inactive: [7] 101 % of control | dose: 200.0 mg/kg/injection, schedule: Q04DX002 (ip), vehicle: saline 97 % of control

CCOP(=O)(CSc1ccccc1)OCC
inactive: [8] 93 % of control | [9] 107 % of control | [10] 100 % of control | [11] 107 % of control | [12] 86 % of control

COc1cc2c(cc1O)C(Cc1ccc(OC)c(OC)c1)N(C)CC2 (stereo not drawn)
inactive: dose: 75.0 mg/kg/injection, schedule: Q01DX001 (ip), vehicle: other 93 % of control | dose: 150.0 mg/kg/injection, schedule: Q01DX001 (ip), vehicle: other 101 % of control

CC(C)(C)OC(=O)C(CC(=O)O)NC(=O)OCc1ccccc1 (stereo not drawn) (tested in a mixture with another compound)
inactive: [1] 101 % of control | [13] 94 % of control | dose: 50.0 mg/kg/injection, schedule: Q01DX009 (ip), vehicle: saline 104 % of control | [14] 94 % of control | [15] 106 % of control | [16] 100 % of control and 91 % of control

COC(=O)CCCCCCCCC(C)c1ccccc1 (stereo not drawn)
inactive: [2] 98 % of control | [16] 103 % of control | [4] 92 % of control | dose: 200.0 mg/kg/injection, schedule: Q04DX003 (ip), vehicle: saline 89 % of control | dose: 400.0 mg/kg/injection, schedule: Q01DX009 (ip), vehicle: Klucel (hydroxypropylcellulose) (HPC) 97 % of control | dose: 400.0 mg/kg/injection, schedule: Q04DX003 (ip), vehicle: saline 92 % of control

CCOC=Nc1c(/C=C(/O)C(=O)OCC)c[n+]([O-])nc1OC
inactive: [9] 92 % of control | dose: 25.0 mg/kg/injection, schedule: Q04DX002 (ip), vehicle: saline 92 % of control | [11] 96 % of control | dose: 50.0 mg/kg/injection, schedule: Q04DX002 (ip), vehicle: saline 96 % of control | [12] 89 % of control | [7] 96 % of control

Cc1cc(Nc2ccc(C)c(Cl)c2)nc(N)n1
inactive: dose: 100.0 mg/kg/injection, schedule: Q01DX Z (ip), vehicle: methylcellulose (MC) 89 % of control

COc1cc2c(cc1OC)C1=C(CC2)C2CCCN2CC1 (stereo not drawn)
inactive: dose: 6.25 mg/kg/injection, schedule: Q04DX003 (ip), vehicle: saline 100 % of control | dose: 12.5 mg/kg/injection, schedule: Q04DX003 (ip), vehicle: saline 97 % of control | [13] 94 % of control and 105 % of control | [14] 102 % of control

CCCCOCCCO
inactive: [15] 91 % of control | dose: 200.0 mg/kg/injection, schedule: Q01DX009 (ip), vehicle: saline 92 % of control | dose: 400.0 mg/kg/injection, schedule: Q01DX009 (ip), vehicle: saline 95 % of control

O=C1c2ccccc2C(=O)N1CCCCCN1C(=O)c2ccccc2C1=O
inactive: [17] 102 % of control | [12] 104 % of control | [18] 96 % of control | dose: 200.0 mg/kg/injection, schedule: Q04DX002 (ip), vehicle: saline with Tween-80 96 % of control | [19] 98 % of control | dose: 400.0 mg/kg/injection, schedule: Q04DX002 (ip), vehicle: saline with Tween-80 101 % of control

O=c1c(=O)c2ccccc2c(=O)/c1=N/Nc1ccccc1
inactive: dose: 100.0 mg/kg/injection, schedule: Q01DX001 (ip), vehicle: water 98 % of control | dose: 200.0 mg/kg/injection, schedule: Q01DX001 (ip), vehicle: water 95 % of control | dose: 400.0 mg/kg/injection, schedule: Q01DX001 (ip), vehicle: water 97 % of control

S=C(NCN1CCNCC1)C(=S)NCN1CCNCC1
inactive: dose: 12.5 mg/kg/injection, schedule: Q01DX009 (ip), vehicle: Klucel (hydroxypropylcellulose) (HPC) 97 % of control | dose: 25.0 mg/kg/injection, schedule: Q01DX009 (ip), vehicle: Klucel (hydroxypropylcellulose) (HPC) 100 % of control | dose: 50.0 mg/kg/injection, schedule: Q01DX009 (ip), vehicle: Klucel (hydroxypropylcellulose) (HPC) 93 % of control

CCc1ccccc1NC(=O)N1CCCCC1C (stereo not drawn)
inactive: [2] 102 % of control | [4] 94 % of control

O=C(NC/C(Br)=C/Br)Nc1c2ccccc2nc2ccccc12
inactive: dose: 10.0 mg/kg/injection, schedule: Q01DX009 (ip), vehicle: Klucel (hydroxypropylcellulose) (HPC) 96 % of control | dose: 20.0 mg/kg/injection, schedule: Q01DX009 (ip), vehicle: Klucel (hydroxypropylcellulose) (HPC) 107 % of control | dose: 40.0 mg/kg/injection, schedule: Q01DX009 (ip), vehicle: Klucel (hydroxypropylcellulose) (HPC) 89 % of control | dose: 75.0 mg/kg/injection, schedule: Q01DX009 (ip), vehicle: Klucel (hydroxypropylcellulose) (HPC) 89 % of control | [3] 102 % of control | [5] 94 % of control | [6] 94 % of control

CCCCCCCCCCCCCCCCCCSC(=N)N
inactive: dose: 12.5 mg/kg/injection, schedule: Q01DX009 (ip), vehicle: saline with Tween-80 101 % of control | [8] 98 % of control | [10] 95 % of control | dose: 100.0 mg/kg/injection, schedule: Q01DX009 (ip), vehicle: saline with Tween-80 100 % of control

[Si]C1CCCCC1
inactive: [17] 96 % of control | [18] 89 % of control | [19] 96 % of control
